Measurements as given in paper PMC5431342, “Discovery of an enzyme and substrate selective inhibitor of ADAM10 using an exosite-binding glycosylated substrate” (Scientific Reports, 2016).

What was measured:
BT474 cells = test: Cell toxicity study (CellTiter-Glo), BT474; format: cell-based; conditions: 72 h
Protocol: (§1) Test compounds were solubilized in 100% DMSO and added to polypropylene 384 well plates (Greiner cat# 781280). 1,250 of BT474 or HEK293 cells were plated in 384-well plates in 8 µL of serum-free media (HybriCare for BT474, EMEM for HEK293). Test compounds and pharmacological assay control (lapatinib) were prepared as 10-point, 1:3 serial dilutions starting at 10 mM, then added to the cells using the pin tool mounted on Biomek NX^P. Plates were incubated for 72 h at 37 °C, 5% CO2 and 95% RH. After incubation, 8 µL of CellTiter-Glo® (Promega cat# G7570) was added to each well, and incubated for 15 min at room temperature. Luminescence was recorded using a Biotek Synergy H4 multimode microplate reader. Viability was expressed as a percentage relative to wells containing media only (0%) and wells containing cells treated with DMSO only (100%). Three parameters were calculated on a per-plate basis: (a) the signal-to-background ratio (S/B); (b) the coefficient for variation [CV; CV = (standard deviation/mean) × 100)] for all compound test wells; and (c) the Z′-factor. IC50 values were calculated by fitting normalized data to sigmoidal log vs. response equation utilizing non-linear regression analysis from GraphPad Prizm 6.

[1] = system: shedding of HER2 from the surface of BT474 cells; test: HER2 shedding inhibition (AlphaLISA soluble HER2); format: cell-based; conditions: Homo sapiens, BT-474, 48 h
Protocol: To determine the effect of CID 3117694 on the release of HER2, an AlphaLISA soluble HER2 assay kit was utilized (Perkin Elmer # AL234 C/F). Briefly, 20,000 BT474 (HER2 positive) breast cancer cells were seeded in 200 µL of complete Hybricare media in 96 well plates. After 4 h, media was aspirated and CID 3117694 (3.125–100 µM) and controls (50 µM marimastat and GI 254023X)[11] were added in serum-free media. Cells were incubated for 48 h at 37 °C with 5% CO2 and under a humidified atmosphere. After incubation, 5 µL of supernatant was transferred into white opaque 384 well plate for HER2 AlphaLISA assay.

HEK293 cells = test: Cell toxicity study (CellTiter-Glo), HEK293; format: cell-based
Protocol: as §1

A549 cells = test: Wound closure assay, A549; format: cell-based; conditions: A549, 10 µM
Protocol: For live-cell analysis of scratch-induced wound closure, 2.5 × 10^4 MDA-MB-231 and A549 cells per well were seeded in collagen G (40 µg/mL) (Biochrom AG, Germany) coated 96-well plates near confluence and allowed to grow overnight in standard medium (DMEM supplemented with 10% FBS and 1% P/S). At confluence, cells were pretreated 2 h with mitomycin (10 µg/mL) (Medac, Germany) to block cell proliferation and washed with standard media. Afterwards, cells were incubated in the presence of inhibitor at the indicated concentrations or DMSO (0.1% vehicle). Subsequently, a defined scratch (wound width between 642–767 µm) was performed in each well using the certified Essen Bioscience automated 96-wound maker^TM (Essen Biosciences, Hertfordshire, UK) for 96 well-plates. The medium was removed and 100 µL standard medium were added to the wells containing either inhibitor or DMSO. The closure of the wounded area was monitored using the IncuCyte ZOOM system by taking images of each well every 2 h over a period of 24 h. The reduction of wound width was determined over time using the IncuCyte ZOOM microscope software 2014A. Data were expressed as percentage of wound closure after 8 h.

ADAM10 [2] = target: T1, ADAM10 (Homo sapiens, UniProt O14672); test: ADAM10 non-glycosylated substrate assay; format: biochemical; conditions: non-glycosylated substrate
T1 construct: purchased R&D Systems 936-AD
T1 sequence (O14672 214-748): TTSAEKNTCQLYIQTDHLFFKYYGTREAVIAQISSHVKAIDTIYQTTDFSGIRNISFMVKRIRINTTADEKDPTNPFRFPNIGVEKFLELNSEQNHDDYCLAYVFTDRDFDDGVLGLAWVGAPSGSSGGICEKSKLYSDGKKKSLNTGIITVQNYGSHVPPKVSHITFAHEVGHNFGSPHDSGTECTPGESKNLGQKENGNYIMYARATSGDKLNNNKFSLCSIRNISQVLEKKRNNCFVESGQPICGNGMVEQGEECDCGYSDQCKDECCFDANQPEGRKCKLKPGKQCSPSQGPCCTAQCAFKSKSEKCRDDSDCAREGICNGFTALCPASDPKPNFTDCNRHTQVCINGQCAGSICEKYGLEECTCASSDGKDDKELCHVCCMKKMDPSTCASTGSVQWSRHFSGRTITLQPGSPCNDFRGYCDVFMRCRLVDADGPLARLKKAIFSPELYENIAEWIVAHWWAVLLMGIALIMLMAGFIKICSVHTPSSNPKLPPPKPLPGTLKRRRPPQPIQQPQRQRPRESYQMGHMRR
From the text: Additionally, we synthesized a non-glycosylated version, E(Edans)-[…]-K(Dabcyl), to be used as a control in the follow-up studies.

ADAM10 [3] = target: T1, ADAM10; test: HPLC-based ADAM10 assay using glycosylated substrate; format: biochemical
Protocol: Both assays followed the same general protocol. 30 µL of 3x enzyme solution (30 nM) in assay buffer (10 mM Hepes, 0.001% Brij-35, pH 7.5) were added to solid bottom black 384 plates. Next, 30 µL of 3x test compounds and pharmacological controls were added to corresponding wells. After 30 min incubation at RT, the reactions were started by addition of 30 µL of 3x solution of glycosylated substrate (30 µM). Reactions were incubated at RT for 2 h and then quenched with 10 µL of 500 µM EDTA. Analytical RP-HPLC was performed on a 1260 Infinity Agilent Technologies liquid chromatograph equipped with an Agilent Poroshell 120 column. Eluents were 0.1% TFA in water (A) and 0.1% TFA in acetonitrile (B). The elution gradient was 0–98% B in 15 min with a flow rate of 1.0 mL/min. Detection was at λ = 214, 360, and 460 nm.

IC50 [1]: 30 ± 2.5 µM | IC50 (ADAM10 [2]): > 100 µM | IC50 (ADAM10 [3]): 4.1 µM
SMILES: COc1cccc(C(=O)NNC(=O)C(=O)Nc2ccc(C)c(Cl)c2)c1 [CID 3117694]
effect on viability of BT474 cells (BT474 cells): did not affect viability | effect on HEK293 cell viability (HEK293 cells; 100 µM): moderate effect | effect on viability of HEK293 cells (HEK293 cells; 72 h): did not affect viability | effect on wound healing (A549 cells): significantly decreased wound healing
